Experimental data as given in publication PMC4993479 (PLoS ONE, 2016).
Like-named read-outs stand apart in the source and are kept apart here.

Key:
COX-2 = biological target: T1, COX-2 (Homo sapiens, UniProt P35354); experiment: COX Fluorescent Inhibitor Screening Assay (COX-2 inhibition); assay type: biochemical; conditions: concentration range 0.000155–0.31 mM, 2 min incubation
T1 construct: purchased Cayman Chemical 700100
T1 sequence (P35354 18-604): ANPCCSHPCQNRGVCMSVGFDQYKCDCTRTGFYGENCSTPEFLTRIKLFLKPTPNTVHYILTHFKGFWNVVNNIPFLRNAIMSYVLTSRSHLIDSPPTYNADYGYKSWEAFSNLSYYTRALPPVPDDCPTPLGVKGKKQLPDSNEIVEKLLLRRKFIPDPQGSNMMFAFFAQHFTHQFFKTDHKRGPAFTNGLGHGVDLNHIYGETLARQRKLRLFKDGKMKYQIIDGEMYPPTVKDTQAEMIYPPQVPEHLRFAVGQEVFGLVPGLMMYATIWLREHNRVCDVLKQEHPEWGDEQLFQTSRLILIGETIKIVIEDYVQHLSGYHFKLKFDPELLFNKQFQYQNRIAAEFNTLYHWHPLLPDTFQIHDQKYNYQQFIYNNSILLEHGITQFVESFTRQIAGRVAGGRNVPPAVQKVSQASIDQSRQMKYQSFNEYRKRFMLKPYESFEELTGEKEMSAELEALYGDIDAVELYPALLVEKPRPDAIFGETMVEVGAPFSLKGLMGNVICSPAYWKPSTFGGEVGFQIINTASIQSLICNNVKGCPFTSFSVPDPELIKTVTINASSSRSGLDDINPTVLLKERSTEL

[1] = In vitro skin diffusion across human epidermis in Franz-type diffusion cells; assay type: in vitro ADME
Experimental: Full thickness human skin samples from patients (26–48 years old females) undergoing abdominoplasty at Perth (WA, Australia) hospitals were refrigerated immediately after surgery. Sampling was approved by the Human Research Ethics Committee of Curtin University and was conducted in compliance with the guidelines of the National Health and Medical Research Council of Australia. Epidermal sheets were obtained and stored as previously described. […] Two hundred μL samples of the receptor phase were withdrawn and replaced with an equal volume of fresh pre-warmed (37°C) 25:75 PG:PBS over an 8 h period and the content analysed by HPLC. […] Permeability coefficients (cm/h) were calculated.

[2] = Uptake/retention in the epidermis by solvent extraction and HPLC after the permeation experiment; conditions: human epidermis
Experimental: Briefly, the skin sections were placed in 500 μL methanol and vortexed for 2 min, then transferred to a second 500 μL methanol volume and vortexed for another 2 min. The skin sample was then placed in 1 mL propylene glycol for 1 h with agitation. After centrifuging each extract at 10,000 × g for 10 min, the resultant supernatants were diluted appropriately, quantified by HPLC, and the data combined to give total penetrant in the epidermal section.
Mass balance/recovery after the skin permeation experiments was determined by removing and retaining the donor solution, and washing the epidermal surface, donor and receptor compartments and retaining all washing solutions. The content of all solutions was analysed by HPLC following suitable dilution.

| Molecule | COX-2 inhibition (in words) (COX-2) | Amount permeated (% of applied dose) [1] | Maximum amount permeated [1] | Amount extracted from the skin (% of applied dose) ([2]; applied dose 150 μg) | Amount extracted (skin distribution) ([2]; applied dose 150 μg in 25:75 PG:PBS, after 8 h permeation experiment) | steady state flux ([1]; human epidermis, 300 μL containing 150 μg diclofenac alone or as conjugate in 25:75 PG:PBS, 8 h) [μg/cm^2/h] | Maximum amount permeated ([1]; human epidermis, applied dose 150 μg in 300 μL 25:75 PG:PBS, 8 h) | Amount permeated (% of applied dose) ([1]; human epidermis, applied dose 150 μg, 8 h) |
| --- | --- | --- | --- | --- | --- | --- | --- | --- |
| DKP Phe-N-MeNal | did not demonstrate COX-2 inhibition | 4.33 % of applied dose | 6.50(±1.94) μg/cm^2 | – | – | – | – | – |
| CN1C(=O)[C@H](Cc2ccc(NC(=O)Cc3ccccc3Nc3c(Cl)cccc3Cl)cc2)NC(=O)[C@@H]1Cc1ccc2ccccc2c1 [DKP-diclofenac conjugate, DKP Phe(Diclofenac)-N-MeNal] | – | 4.00 % of applied dose | 6.01(±0.16) μg/cm^2 | – | – | – | – | – |
| O=C(O)Cc1ccccc1Nc1c(Cl)cccc1Cl [Diclofenac, Diclofenac sodium] | – | – | – | 5.72 % of applied dose | 8.58(±1.50) μg | 0.12 | 0.91(±0.15) μg/cm^2 | 0.60 % of applied dose |
